From publication PMC11489250, “Optimized methods for measuring competitive binding of chemical substances to thyroid hormone distributor proteins transthyretin and thyroxine binding globulin” (Archives of Toxicology, 2024)
Like-named read-outs stand apart in the source and are kept apart here.

Tests used:
[1] = molecular target: T1, thyroxine-binding globulin (TBG) (Homo sapiens, UniProt P05543); assay: Competitive TBG-binding assay with FITC-T4 (fluorescence polarization readout); details: 5 nM FITC-T4, 10 nM TBG, RT
T1 construct: purchased Bio-rad Laboratories, Inc. (Veenendaal, The Netherlands)
T1 sequence (P05543 21-415): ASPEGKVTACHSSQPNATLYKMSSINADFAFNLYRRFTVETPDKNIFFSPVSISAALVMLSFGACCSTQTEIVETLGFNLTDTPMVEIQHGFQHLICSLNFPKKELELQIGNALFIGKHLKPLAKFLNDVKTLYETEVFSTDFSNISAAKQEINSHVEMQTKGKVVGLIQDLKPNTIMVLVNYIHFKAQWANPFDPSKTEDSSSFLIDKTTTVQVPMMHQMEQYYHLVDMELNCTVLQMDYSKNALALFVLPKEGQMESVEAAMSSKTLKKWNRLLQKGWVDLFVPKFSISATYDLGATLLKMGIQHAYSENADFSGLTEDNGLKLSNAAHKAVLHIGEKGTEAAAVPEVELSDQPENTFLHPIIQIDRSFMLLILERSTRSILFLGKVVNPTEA
Protocol: Prepared plates were first shaken for 5 min and then incubated for 15 min at room temperature before being analysed by the microplate reader at FP mode (CLARIOstar Plus, BMG LABTECH).
Accordingly, dilution series of all compounds were prepared in DMSO. First, 24 µL Tris–HCl buffer was pipetted to the wells, followed by 1 µL of the compound stock solution. […] Solvent (DMSO) concentrations in all conditions were 1%. The plates were shaken for 5 min on a plate shaker, followed by an incubation for 15 min at room temperature.
The adjusted polarization was set to a reference value of 35 mP. The adjustment gain values ranged from 1900 to 2200. The plate layout of TBG-binding assay is provided in Supplementary Information file (Section 4).
For the competitive TBG-binding experiments, concentration–response curves were fitted:2 r=rmin+rmax-rmin/1+IC50/X^HillSlope with rmin and rmax being the minimum and maximum anisotropy values, respectively. X is the concentration of added competitor. Equations that were used for the calculation of the ICX and Ki values in the TTR-binding assays (Supplementary Information, Section 3) were also used to determine the ICX and Ki values in TBG-binding assays without any changes, respectively. The single Kd, IC20, IC50 and Ki were determined based on replicates (n) in each experiment, and then the average and confidence intervals were determined based on the Kd, IC20, IC50 and Ki values from sperate experiments (N).
Alternatively, another approach to determine ICX, Kd and Ki values based on a theoretical model of ligand–protein binding biochemistry was taken as described in detail in the Supplementary Information file (Section 5). For this approach, R was used to fit the model to the data. The results obtained from the two approaches were compared in Section 3.4.
S5.2 Ki and IC50 estimation

Human TTR [2] = molecular target: T2, Human TTR (Homo sapiens, UniProt P02766); assay: Optimized competitive TTR-binding assay with FITC-T4 (fluorescence intensity readout); details: for T4EQ concentration (TTR binding): T4EQi = highest human blood concentration x T4-REPi; for Contribution to T4EQ concentration (TTR binding): mixture of highest human blood concentrations of five model compounds; for IC20: read-out: TTR IC20
T2 construct: Transthyretin (prealbumin, TTR) >95% from human plasma; purchased Sigma Aldrich (Zwijndrecht, The Netherlands); host or cells: human plasma
Protocol: All TTR-binding experiments were performed in black 96-well polystyrene nonbinding plates. Experimental wells and background wells were prepared in triplicate per plate. […] Fluorescence intensity (FI) was measured at λex = 485 ± 20 nm and λem = 528 ± 20 nm (CLARIOstar Plus microplate reader, BMG LABTECH).
To test the effect of the change in temperature and incubation time, a saturation experiment (N = 3, n = 3) was performed in Tris–HCl buffer (0.1 M Tris (Thermo Scientific, Rockford, USA), 0.1 M NaCl (Merck KGaA, Darmstadt, Germany), 1 mM EDTA (VWR International, B.V. Amsterdam, The Netherlands); pH 8.0). […] Two 96-well plates were prepared at the same time. After shaking for 5 min on a plate shaker, one prepared plate was incubated on ice (at 4 °C) and another plate was incubated at room temperature (22 °C). For both plates the fluorescence was measured at different time points: 5 min, 15 min, 60 min and 120 min.
First, 48 µL Tris–HCl buffer (pH 8.0) was pipetted to the wells, followed by 2 µL of the compound (in DMSO). […] Final solvent (DMSO) concentrations in all conditions amounted to 1%. All plates were shaken for 5 min on a plate shaker, followed by an incubation for 15 min at room temperature. The standard operation procedure (SOP) is provided in Supplementary Information file (Section 3).
Calculations of the ICX, Kd and Ki values of TTR-binding assays are described in the Supplementary Information file (Section 3).
3.7.5 The competitive TTR binding screening assay
3.7.8 Processing data to determine IC50 and calculate Ki value

TTR = molecular target: TTR; design: method as in Ren et al. [2016]; details: ref Ren et al. [2016]; read-out: TTR literature Ki; cited from earlier work
Human TTR [3] = molecular target: T2, Human TTR; details: FITC-T4 110 nM, human TTR 30 nM, 4 °C, 2 h; ref Hamers et al. [2020]; read-out: TTR literature Ki; cited from earlier work
TBG = molecular target: TBG; design: method as in Ren et al. [2016]; details: ref Ren et al. [2016]; read-out: TBG Ki; cited from earlier work
[4] = TTR IC50, 110 nM FITC-T4, 30 nM TTR, RT, 15 min, average [95% CI]
[5] = TTR IC50 [95% CI], 55 nM FITC-T4, 30 nM TTR, RT (5 min)
[6] = TTR IC50 [95% CI], 55 nM FITC-T4, 30 nM TTR, RT (15 min)
[7] = TTR IC50 [95% CI], 55 nM FITC-T4, 30 nM TTR, RT (60 min)
[8] = TTR IC50 [95% CI], 55 nM FITC-T4, 30 nM TTR, RT (120 min)
[9] = TTR IC50 [95% CI], 55 nM FITC-T4, 30 nM TTR, on ice (120 min)
[10] = TTR Ki [95% CI], 55 nM FITC-T4, 30 nM TTR, RT (5 min)
[11] = TTR Ki [95% CI], 55 nM FITC-T4, 30 nM TTR, RT (15 min)
[12] = TTR Ki [95% CI], 55 nM FITC-T4, 30 nM TTR, RT (60 min)
[13] = TTR Ki [95% CI], 55 nM FITC-T4, 30 nM TTR, on ice (120 min)
[14] = TTR Ki, 110 nM FITC-T4, 30 nM TTR, RT, 15 min, derived from IC20, average [95% CI]

Compound | inhibition of the FITC-T4 binding to TBG (in words) [1] | displacement of FITC-T4 from TTR (in words) (Human TTR [2]; 110 nM FITC-T4, 30 nM TTR, RT) | Ki (TTR) | T4EQ concentration (TTR binding) (Human TTR [2]) | IC50 (Human TTR [2]; [4]) | IC50 (Human TTR [2]; [5]) | IC50 (Human TTR [2]; [6]) | IC50 (Human TTR [2]; [7]) | IC50 (Human TTR [2]; [8]) | IC50 (Human TTR [2]; [9]) | Ki (Human TTR [2]; [10]) | Ki (Human TTR [2]; [11]) | Ki (Human TTR [2]; [12]) | Ki (Human TTR [2]; [13]) | Ki (Human TTR [2]; [14]) | Contribution to T4EQ concentration (TTR binding) (Human TTR [2]) | IC20 (Human TTR [2]) | Ki (Human TTR [3]) | Ki (Human TTR [2]; TTR Ki [95% CI], 55 nM FITC-T4, 30 nM TTR, RT (120 min)) | Ki (TBG)
OC[C@@H](O)[C@@H](O)[C@H](O)[C@H](O)CO [D-mannitol] | no inhibition | Except for D-mannitol, all compounds displaced FITC-T4 from TTR | – | – | – | – | – | – | – | – | – | – | – | – | – | – | – | – | – | –
O=C(O)C(F)(F)C(F)(F)C(F)(F)C(F)(F)C(F)(F)C(F)(F)C(F)(F)F [PFOA, perfluorooctanoic acid] | No (or only limited) inhibition | – | 60 nM | 1.26 nM | 763 nM | 500 nM | 496 nM | 459 nM | 460 nM | 461 nM | 268 nM | 280 nM | 304 nM | 353 nM | 568 nM | 6.6% | 267 nM | 1100 nM | – | –
O=S(=O)(O)C(F)(F)C(F)(F)C(F)(F)C(F)(F)C(F)(F)C(F)(F)C(F)(F)C(F)(F)F [PFOS, Perfluorooctanesulfonic acid] | No (or only limited) inhibition | – | – | 9.73 nM | 271 nM | 191 nM | 189 nM | 196 nM | 194 nM | 179 nM | 143 nM | 133 nM | 127 nM | 171 nM | 243 nM | 50.9% | 118 nM | 160 nM | 133 nM | –
O=C(O)C(F)(F)C(F)(F)C(F)(F)C(F)(F)C(F)(F)C(F)(F)C(F)(F)C(F)(F)C(F)(F)C(F)(F)C(F)(F)C(F)(F)F [PFTA, perfluorotridecanoic acid] | – | – | – | – | – | – | – | – | – | – | – | – | – | – | – | – | – | – | – | 23000 nM
